Experimental data reported in patent publication US8258098B2, “Antitumoral treatments” (Pharma Mar, S.A., priority 2006, dated 2012).
pIC50: −log10 of the molar value.

Assays:
MOLT4 cell line = test: MTS assay with CalcuSyn combination index, leukemia; assay type: cell-based; details: Homo sapiens, MOLT-4, read-out: IC50 (Molar)
Procedure: (§1) These cell lines were cultured in RPMI1640 medium with 10% FBS and 2 mM L-Glutamine. Each cell line was plated in a 96 well plates at 20,000 cell per well.
(§2) Each serial dilution was paired with 4 different concentrations of Idarubicin.
(§3) The plates were incubated for 3 days at 37° C. and 5% CO2. The plates were read using the Promega MTS assay system with MTS being metabolized by living cells turning into formazan which is […] at 490 nm wavelength. This is an indirect measure of cell viability. These were analyzed using the Softmax Pro program which determines cell viability based percent of control wells. This IC50 data was then transferred into the CalcuSyn program for combination index analysis. CalcuSyn compares IC50 the values of the drugs alone with that of the drugs in combination using an algorithm to determine a combination index.

K562 cell line = test: as above; assay type: cell-based; details: Homo sapiens, K562, read-out: IC50 (Molar)
Procedure: as §1, §2, §3

pIC50 (MOLT4 cell line): 10.30 | pIC50 (K562 cell line): 7.20
Structure (SMILES): CC(=O)[C@]1(O)Cc2c(O)c3c(c(O)c2[C@@H](O[C@H]2C[C@H](N)[C@H](O)[C@H](C)O2)C1)C(=O)c1ccccc1C3=O [Idarubicin]
